Test results reported in the CheMixHub viscosity set.

Assay: xn = mol fraction of the nth substance listed

Oc1ccccc1Cl + CCOCCO
viscosity [mPa·s], 101 kPa
Conditions | x1 = 0.0961 | x1 = 0.193 | x1 = 0.2907 | x1 = 0.3894 | x1 = 0.4889 | x1 = 0.5893 | x1 = 0.6906 | x1 = 0.7928 | x1 = 0.8959
303.15 K | 2.185 | 2.825 | 3.45 | 3.996 | 4.376 | 4.53 | 4.41 | 4.05 | 3.486
308.15 K | 1.948 | 2.453 | 2.949 | 3.365 | 3.66 | 3.784 | 3.706 | 3.43 | 3.005
313.15 K | 1.725 | 2.133 | 2.524 | 2.868 | 3.106 | 3.215 | 3.17 | 2.974 | 2.664
318.15 K | 1.567 | 1.887 | 2.19 | 2.449 | 2.63 | 2.724 | 2.702 | 2.57 | 2.341

C=COC(C)=O + CCc1ccccc1
viscosity [mPa·s], 101 kPa
Conditions | x1 = 0.1246 | x1 = 0.2478 | x1 = 0.3516 | x1 = 0.4658 | x1 = 0.576 | x1 = 0.6587 | x1 = 0.7601 | x1 = 0.8593 | x1 = 0.9467
303.15 K | 0.556 | 0.523 | 0.499 | 0.475 | 0.453 | 0.439 | 0.422 | 0.408 | 0.397
313.15 K | 0.506 | 0.473 | 0.45 | 0.426 | 0.407 | 0.394 | 0.379 | 0.364 | 0.352

CC(C)c1ccccc1 + CCc1ccccc1
101.33 kPa, x1 = 0.4675
Conditions | viscosity [mPa·s]
293.15 K | 0.696
313.15 K | 0.545

CCCCOC(C)=O + CN1CCCC1=O
viscosity [mPa·s], 101 kPa
Conditions | x2 = 0.1327 | x2 = 0.256 | x2 = 0.3711 | x2 = 0.4785 | x2 = 0.5792 | x2 = 0.6737 | x2 = 0.7626 | x2 = 0.8463 | x2 = 0.9253
303.15 K | 0.801 | 0.941 | 1.061 | 1.165 | 1.258 | 1.339 | 1.405 | 1.463 | 1.512
308.15 K | 0.737 | 0.861 | 0.968 | 1.059 | 1.143 | 1.213 | 1.273 | 1.325 | 1.37
313.15 K | 0.69 | 0.805 | 0.905 | 0.991 | 1.065 | 1.13 | 1.187 | 1.236 | 1.28
318.15 K | 0.642 | 0.745 | 0.834 | 0.911 | 0.978 | 1.037 | 1.088 | 1.131 | 1.173

Oc1ccccc1Cl + CN(C)C=O
Conditions | viscosity [mPa·s]
303.15 K, 101 kPa, x1 = 0.3286 | 3.443
